According to PubChem BioAssay AID1963874 (Molecular Pharmacology Branch, DTP, NCI, 2024):

System: 253994-281-T-J1-PDC KRAS-mutant spheroids with HUVEC/MSC, viability
Assay: Anticancer human tumor 253994-281-T-J1-PDC patient-derived colorectal carcinoma cell line growth inhibition [KRAS2]
Details: for viability, T/C: stronger effect = lower value
Method in brief: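 KRAS-mutant tumor cells were grown as spheroids with HUVEC endothelial cells and human MSCs as stroma. Targeted agents were tested alone and with KRAS pathway inhibitors. Doses started at or near clinical Cmax, or 10 microM, descending half-log.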

[1] = curve of first compound, second compound 0.1 µM
[2] = curve of first compound, second compound 0.316 µM
[3] = curve of first compound, second compound 1 µM
[4] = curve of first compound, second compound 3.16 µM
[5] = curve of first compound, second compound 10 µM
[6] = second compound 0.1 µM, first compound 0.01 µM
[7] = second compound 0.1 µM, first compound 0.0316 µM
[8] = second compound 0.316 µM, first compound 0.01 µM
[9] = second compound 0.316 µM, first compound 0.0316 µM
[10] = second compound 1 µM, first compound 0.01 µM
[11] = second compound 1 µM, first compound 0.0316 µM
[12] = second compound 3.16 µM, first compound 0.01 µM
[13] = second compound 3.16 µM, first compound 0.0316 µM
[14] = second compound 10 µM, first compound 0.0316 µM
[15] = second compound 0.1 µM, first compound 0.1 µM
[16] = second compound 0.1 µM, first compound 0.316 µM
[17] = second compound 0.1 µM, first compound 1 µM
[18] = second compound 0.1 µM, first compound 3.16 µM
[19] = second compound 0.316 µM, first compound 0.1 µM
[20] = second compound 0.316 µM, first compound 0.316 µM
[21] = second compound 0.316 µM, first compound 1 µM
[22] = second compound 0.316 µM, first compound 3.16 µM
[23] = second compound 1 µM, first compound 0.1 µM
[24] = second compound 1 µM, first compound 0.316 µM
[25] = second compound 1 µM, first compound 1 µM
[26] = second compound 1 µM, first compound 3.16 µM
[27] = second compound 3.16 µM, first compound 0.1 µM
[28] = second compound 3.16 µM, first compound 0.316 µM
[29] = second compound 3.16 µM, first compound 1 µM
[30] = second compound 3.16 µM, first compound 3.16 µM
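Also: spheroids exposed to agents for seven days before readout.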
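For viability, T/C in this document: percent of DMSO vehicle control viability.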

CC(=O)Nc1cccc(-n2c(=O)n(C3CC3)c(=O)c3c(Nc4ccc(I)cc4F)n(C)c(=O)c(C)c32)c1 + C=CC(=O)N1CCN(c2nc(=O)n(-c3c(C)ccnc3C(C)C)c3nc(-c4c(O)cccc4F)c(F)cc23)C(C)C1 gave an IC50 [1] of 1.2 nM, an IC50 [2] of 1.03 nM and an IC50 [3] of 1.5 nM. It also gave an IC50 [4] of 1.97 nM, an IC50 [5] of 1.07 nM and a viability, T/C (second compound 0.1 µM, first compound 0.0001 µM) of 106%. It also gave a viability, T/C (second compound 0.1 µM, first compound 0.000316 µM) of 91.9%, a viability, T/C (second compound 0.1 µM, first compound 0.001 µM) of 47% and a viability, T/C (second compound 0.1 µM, first compound 0.00316 µM) of 31.8%. For the same compound, the viability, T/C [6] was 18.2%, the viability, T/C [7] was 5.7% and the viability, T/C (second compound 0.316 µM, first compound 0.0001 µM) was 124%. For the same compound, the viability, T/C (second compound 0.316 µM, first compound 0.000316 µM) was 77.7%, the viability, T/C (second compound 0.316 µM, first compound 0.001 µM) was 54.3% and the viability, T/C (second compound 0.316 µM, first compound 0.00316 µM) was 28.4%. It also gave a viability, T/C [8] of 17.4%, a viability, T/C [9] of 7.2% and a viability, T/C (second compound 1 µM, first compound 0.0001 µM) of 96.2%. It also gave a viability, T/C (second compound 1 µM, first compound 0.000316 µM) of 91.5%, a viability, T/C (second compound 1 µM, first compound 0.001 µM) of 57.7% and a viability, T/C (second compound 1 µM, first compound 0.00316 µM) of 31.3%. The viability, T/C [10] was 15.5%, the viability, T/C [11] was 6.85% and the viability, T/C (second compound 3.16 µM, first compound 0.0001 µM) was 101%. For the same compound, the viability, T/C (second compound 3.16 µM, first compound 0.000316 µM) was 91.6%, the viability, T/C (second compound 3.16 µM, first compound 0.001 µM) was 69.2% and the viability, T/C (second compound 3.16 µM, first compound 0.00316 µM) was 36.4%. For the same compound, the viability, T/C [12] was 16.1%, the viability, T/C [13] was 6.84% and the viability, T/C (second compound 10 µM, first compound 0.0001 µM) was 95.8%. It also gave a viability, T/C (second compound 10 µM, first compound 0.000316 µM) of 84.4%, a viability, T/C (second compound 10 µM, first compound 0.001 µM) of 51% and a viability, T/C (second compound 10 µM, first compound 0.00316 µM) of 22.4%. The viability, T/C (second compound 10 µM, first compound 0.01 µM) was 16.2% and the viability, T/C [14] was 7.46%.
For CC1COCCN1c1cc(-c2ccnn2C)c2ccnc(-c3ccn[nH]3)c2n1 (stereo not given) + C=CC(=O)N1CCN(c2nc(OCC3CCCN3C)nc3c2CCN(c2cccc4cccc(C)c24)C3)CC1CC#N, the IC50 (curve of first compound, second compound 0.0316 µM) was over 3160 nM, the IC50 [1] was over 3160 nM and the IC50 [2] was over 3160 nM. For the same compound, the IC50 [3] was over 3160 nM, the IC50 [4] was 129 nM and the viability, T/C (second compound 0.0316 µM, first compound 0.01 µM) was 115%. It also gave a viability, T/C (second compound 0.0316 µM, first compound 0.0316 µM) of 101%, a viability, T/C (second compound 0.0316 µM, first compound 0.1 µM) of 87.1% and a viability, T/C (second compound 0.0316 µM, first compound 0.316 µM) of 67.6%. It also gave a viability, T/C (second compound 0.0316 µM, first compound 1 µM) of 60.5%, a viability, T/C (second compound 0.0316 µM, first compound 3.16 µM) of 64.5% and a viability, T/C [6] of 94.1%. It also gave a viability, T/C [7] of 93.1%, a viability, T/C [15] of 90.7% and a viability, T/C [16] of 59.7%. For the same compound, the viability, T/C [17] was 66.9%, the viability, T/C [18] was 60.6% and the viability, T/C [8] was 117%. The viability, T/C [9] was 93%, the viability, T/C [19] was 83% and the viability, T/C [20] was 53.8%. For the same compound, the viability, T/C [21] was 55.7%, the viability, T/C [22] was 62.9% and the viability, T/C [10] was 101%. The viability, T/C [11] was 94.4%, the viability, T/C [23] was 75.5% and the viability, T/C [24] was 48.8%. The viability, T/C [25] was 51%, the viability, T/C [26] was 59.2% and the viability, T/C [12] was 80.2%. The viability, T/C [13] was 90%, the viability, T/C [27] was 53.3% and the viability, T/C [28] was 30.6%. It also gave a viability, T/C [29] of 37.8% and a viability, T/C [30] of 47.8%.
With Cn1ncnc1[C@H]1c2n[nH]c(=O)c3cc(F)cc(c23)N[C@@H]1c1ccc(F)cc1 the viability, T/C (compound 0.000316 µM) was 101% [middle of 5 runs], the viability, T/C (compound 0.001 µM) was 99.4% [middle of 5 runs] and the viability, T/C (compound 0.01 µM) was 99.2% [middle of 5 runs]. The viability, T/C (compound 0.0316 µM) was 102% [middle of 5 runs] and the IC50 (curve of compound) was over 100 nM.
CC1(C)CCC(CN2CCN(c3ccc(C(=O)NS(=O)(=O)c4ccc(NCC5CCOCC5)c([N+](=O)[O-])c4)c(Oc4cnc5[nH]ccc5c4)c3)CC2)=C(c2ccc(Cl)cc2)C1 + C=CC(=O)N1CCN(c2nc(=O)n(-c3c(C)ccnc3C(C)C)c3nc(-c4c(O)cccc4F)c(F)cc23)C(C)C1 showed an IC50 [1] of over 10000 nM, an IC50 [2] of over 10000 nM and an IC50 [3] of over 10000 nM. For the same compound, the IC50 [4] was over 10000 nM, the IC50 [5] was over 10000 nM and the viability, T/C [7] was 107%. It also gave a viability, T/C [15] of 92.5%, a viability, T/C [16] of 100% and a viability, T/C [17] of 99.5%. For the same compound, the viability, T/C [18] was 93.3%, the viability, T/C (second compound 0.1 µM, first compound 10 µM) was 78.8% and the viability, T/C [9] was 96.6%. For the same compound, the viability, T/C [19] was 92.9%, the viability, T/C [20] was 100% and the viability, T/C [21] was 98.8%. The viability, T/C [22] was 87.3%, the viability, T/C (second compound 0.316 µM, first compound 10 µM) was 71.5% and the viability, T/C [11] was 100%. The viability, T/C [23] was 105%, the viability, T/C [24] was 107% and the viability, T/C [25] was 100%. The viability, T/C [26] was 88.1%, the viability, T/C (second compound 1 µM, first compound 10 µM) was 62.7% and the viability, T/C [13] was 97.3%. The viability, T/C [27] was 99.9%, the viability, T/C [28] was 88.8% and the viability, T/C [29] was 96.3%. The viability, T/C [30] was 84.8%, the viability, T/C (second compound 3.16 µM, first compound 10 µM) was 77.9% and the viability, T/C [14] was 105%. For the same compound, the viability, T/C (second compound 10 µM, first compound 0.1 µM) was 98.3%, the viability, T/C (second compound 10 µM, first compound 0.316 µM) was 94.4% and the viability, T/C (second compound 10 µM, first compound 1 µM) was 89.2%. The viability, T/C (second compound 10 µM, first compound 3.16 µM) was 87.9% and the viability, T/C (second compound 10 µM, first compound 10 µM) was 83.3%.
